# Entries after “also recorded” stand apart in the source; their conditions may differ. Where two headings read alike, the source gives them in different places. Bridge positions count the residues as written; N and C are the ends. Ends that are not written are not given here.
# Experiments:
# trypsin [1] = biological target: T1, trypsin (Sus scrofa, UniProt P00761)
# [2] = Circular dichroism thermostability; type: physicochemical; settings: 25-30 µM in 10 mM phosphate buffer pH 7.4, heated 20 to 95 °C at 2 °C per min, 220 nm
# Procedure: Protein secondary structures were assessed using circular dichrosim (CD). CD spectra were measured with a Jasco J-720W spectropolarimeter using a 1.0 mm path length cell. Protein samples (25-30 µM) in 10 mM phosphate buffer (pH 7.4) were analyzed at a wavelength range of 190 to 260 nm. […] Data are expressed in terms of relative ellipticity [θ], reported in mdeg.
# YAP:TEAD [3] = biological target: T2, YAP:TEAD (Homo sapiens, UniProt P28347); type: cell-based; design: endogenous in cells; host or cells: HeLa cells; settings: HeLa cells, 5 µM optide with 5 µM dfTAT, 90 min; versus dfTAT alone, P < 0.0001
# Target sequence in this assay (P28347 whole entry): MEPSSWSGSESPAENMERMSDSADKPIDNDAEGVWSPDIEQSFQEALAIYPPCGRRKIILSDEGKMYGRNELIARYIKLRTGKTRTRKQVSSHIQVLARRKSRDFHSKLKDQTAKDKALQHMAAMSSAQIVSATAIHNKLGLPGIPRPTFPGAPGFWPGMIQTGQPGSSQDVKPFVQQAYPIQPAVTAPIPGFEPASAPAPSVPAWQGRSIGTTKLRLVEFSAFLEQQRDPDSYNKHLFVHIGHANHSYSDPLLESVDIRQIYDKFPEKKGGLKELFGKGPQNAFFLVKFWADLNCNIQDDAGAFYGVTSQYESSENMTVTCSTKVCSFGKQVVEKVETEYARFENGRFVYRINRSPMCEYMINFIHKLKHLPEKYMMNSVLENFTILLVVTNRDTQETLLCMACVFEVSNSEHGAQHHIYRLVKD
# HeLa cells = assay: Cell penetration of DyLight 488 labelled optide in HeLa cells; type: cell-based; settings: 5 µM optide without dfTAT
# chymotrypsin = biological target: T3, chymotrypsin (Bos taurus, UniProt P00766); assay: Protease stability in surface display (SDPR), chymotrypsin; type: in vitro ADME; settings: 40 µg mL^-1 chymotrypsin, SDPR-TB1G2 on 293F cells, then 5 mM DTT and iFluor 647 anti-6xHis staining
# T3 construct: purchased Promega V1062
# [4] = type: physicochemical; settings: SYPRO Orange, 0.1 mg/mL in PBS, 20 to 95 °C
# YAP:TEAD [5] = biological target: T2, YAP:TEAD; type: binding; design: GST; made in house; host or cells: TEAD from Hi5 insect cells; settings: 293F cells expressing SDGF-YAP, 5 nM TEAD, 0-100 nM optide
# Target sequence in this assay (P28347 209-426): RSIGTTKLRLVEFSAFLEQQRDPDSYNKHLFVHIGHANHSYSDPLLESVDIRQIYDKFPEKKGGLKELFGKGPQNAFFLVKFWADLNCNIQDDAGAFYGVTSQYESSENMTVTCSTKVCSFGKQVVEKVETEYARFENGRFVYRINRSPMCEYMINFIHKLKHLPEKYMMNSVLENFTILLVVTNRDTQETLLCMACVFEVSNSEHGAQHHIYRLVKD
# TEAD [6] = biological target: T4, TEAD (Homo sapiens, UniProt P28347); assay: Reduction resistance of surface displayed optides (GSH or DTT, then TEAD binding); type: physicochemical; settings: 10 mM glutathione for 5 mins, then TEAD binding (20 nM, 2-step stain)
# T4 construct: GST; made in house; host or cells: Hi5 insect cells (baculovirus, pIEX-BAC3 vector)
# T4 sequence (P28347 209-426): as above
# trypsin [7] = biological target: T1, trypsin; assay: Protease stability in surface display (SDPR), trypsin; type: in vitro ADME; design: purchased Promega V5111; settings: 40 µg mL^-1 trypsin, SDPR-TB1G2 on 293F cells, then 5 mM DTT and iFluor 647 anti-6xHis staining
# [8] = Reduction resistance of soluble optides (DTT or glutathione, RP-HPLC, LC/MS); type: physicochemical; settings: for reduction with 10 mM DTT: soluble optide, SDS-PAGE, mass spectrometry
# YAP:TEAD [9] = biological target: T2, YAP:TEAD; type: biochemical; design: plasmid # 66853; host or cells: 293T cells, RIPA lysates
# Target sequence in this assay (P28347 whole entry): as the sequence (P28347 whole entry) above
# TEAD [10] = biological target: T4, TEAD; assay: Surface display TEAD binding by flow cytometry (SDGF, 293F cells); settings: tetravalent staining, SDGF-TB1G1 cells
# T1 sequence (P00761 9-231): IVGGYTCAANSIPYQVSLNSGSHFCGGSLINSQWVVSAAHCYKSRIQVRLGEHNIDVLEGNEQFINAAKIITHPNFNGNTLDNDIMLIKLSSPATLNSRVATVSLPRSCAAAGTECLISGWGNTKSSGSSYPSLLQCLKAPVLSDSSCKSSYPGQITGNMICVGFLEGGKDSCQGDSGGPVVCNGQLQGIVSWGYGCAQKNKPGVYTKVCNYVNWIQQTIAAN
molecule,measurement,setting,value
U9-theraphotoxin-Cj1a [Peptide 11],Trypsin Resistance,trypsin [1],46%
"GSSVPCVSTRGSCKPPAPACCHPCASCQCRFFRSACSCRVLNVNC (also: bicyclic or more (positions not given here)) [Peptide 12, Agouti-signaling protein]",Trypsin Resistance,trypsin [1],60%
"GSKDYCPGICNVAAVPDCDTLCISLGYSGGYCRAGRICCCNPK (also: bicyclic or more (positions not given here)) [Peptide 7, Uncharacterized protein]",Trypsin Resistance,trypsin [1],96%
CC[C@H](C)[C@H](NC(=O)[C@H](Cc1ccc(O)cc1)NC(=O)[C@H](CCC(=O)O)NC(=O)[C@H](CC(=O)O)NC(=O)[C@@H]1CCCN1C(=O)[C@H](CO)NC(=O)CN)C(=O)N[C@@H](CCC(=O)O)C(=O)N[C@@H](CCCNC(=N)N)C(=O)N[C@@H](C)C(=O)N[C@@H](CCCCN)C(=O)N[C@@H](CCC(=O)O)C(=O)N[C@H]1CSSC[C@@H]2NC(=O)[C@H](CCC(N)=O)NC(=O)[C@H]([C@@H](C)CC)NC(=O)[C@H](CC(=O)O)NC(=O)[C@H](CCC(N)=O)NC(=O)[C@H](CCCCN)NC(=O)[C@H](CCCCN)NC(=O)[C@H](CSSC[C@@H](C(=O)N[C@@H](Cc3c[nH]c4ccccc34)C(=O)O)NC(=O)[C@H](Cc3ccccc3)NC(=O)[C@H](CC(C)C)NC(=O)[C@@H]3CSSC[C@H](NC2=O)C(=O)N[C@@H](CC(C)C)C(=O)N[C@@H](CCCNC(=N)N)C(=O)N[C@@H]([C@@H](C)CC)C(=O)N[C@@H](Cc2ccccc2)C(=O)N[C@@H](CC(=O)O)C(=O)N[C@@H](CCC(=O)O)C(=O)N[C@@H](CO)C(=O)N[C@@H](CCCCN)C(=O)N[C@@H](CC(=O)O)C(=O)N2CCC[C@H]2C(=O)N[C@@H](CC(N)=O)C(=O)N[C@@H](C(C)C)C(=O)N[C@@H](CCSC)C(=O)N[C@@H](CC(C)C)C(=O)N[C@@H]([C@@H](C)CC)C(=O)N3)NC1=O [TB1G2],thermostability by circular dichroism,[2],no evidence of altered TB1G2 structure up to 95 °C; also recorded: identical before (Pre) and after (Post) incubation at 95 °C
same,YAP:TEAD PLA speckles per nucleus,YAP:TEAD [3],reduction in speckles
same,cell penetration,HeLa cells,failed to demonstrate cell penetration; also recorded: not yet cell penetrant
same,"protease stability in surface display, chymotrypsin",chymotrypsin,no change in anti-6xHis staining
same,melting temperature,[4],no melting temperature could be determined
same,inhibition of YAP:TEAD-dependent cell staining,YAP:TEAD [5],much higher potency
same,"stability under intracellular reducing conditions, surface displayed",TEAD [6],no effect on TB1G2 stability
same,"protease stability in surface display, trypsin",trypsin [7],no change in anti-6xHis staining
same,"stability under intracellular reducing conditions, soluble",[8]; 10 mM glutathione,no effect on TB1G2 stability
same,reduction with 10 mM DTT,[8],incomplete reduction
Turripeptide IX-01 [Peptide 8],Trypsin Resistance,trypsin [1],96%
"GSKEICERPNGSCRDFCLETEIHVGRCLNSQPCCLPL (also: bicyclic or more (positions not given here)) [Peptide 4, Beta-defensin 108B]",Trypsin Resistance,trypsin [1],95%
Beta/delta-agatoxin-6 [Peptide 3],Trypsin Resistance,trypsin [1],102%
"GSGICACRRRFCLNFEQFSGYCRVNGARYVRCCSRR (also: bicyclic or more (positions not given here)) [Peptide 9, Corticostatin-6]",Trypsin Resistance,trypsin [1],65%
"GSAPPCKRDVDCSFECPKGGFCNDRLGTCDCF (also: bicyclic or more (positions not given here)) [Peptide 1, Putative defensin-like protein 257]",Trypsin Resistance,trypsin [1],90%
CC[C@H](C)[C@@H]1NC(=O)[C@H](CC(=O)O)NC(=O)CNC(=O)[C@H](CCCCN)NC(=O)[C@H](CCCCN)NC(=O)[C@@H]2CSSC[C@@H](C(=O)N3CCC[C@H]3C(=O)O)NC(=O)[C@H](Cc3ccccc3)NC(=O)[C@H](CC(C)C)NC(=O)[C@@H]3CSSC[C@H](NC(=O)[C@H](CSSC[C@H](NC(=O)[C@H](CCC(=O)O)NC(=O)[C@H](CCCCN)NC(=O)[C@H](C)NC(=O)[C@H](CCCNC(=N)N)NC(=O)[C@H](CCC(=O)O)NC(=O)[C@@H](NC(=O)[C@H](Cc4ccc(O)cc4)NC(=O)[C@H](CCC(=O)O)NC(=O)[C@H](CC(=O)O)NC(=O)[C@@H]4CCCN4C(=O)[C@H](CO)NC(=O)CN)[C@@H](C)CC)C(=O)N2)NC(=O)[C@H](CCC(N)=O)NC1=O)C(=O)N[C@@H](CC(C)C)C(=O)N[C@@H](CCCNC(=N)N)C(=O)N[C@@H](Cc1ccc(O)cc1)C(=O)N[C@@H](Cc1ccccc1)C(=O)N[C@@H](CCC(=O)O)C(=O)N[C@@H](CCC(=O)O)C(=O)N[C@@H](CO)C(=O)NCC(=O)N[C@@H](CC(=O)O)C(=O)N1CCC[C@H]1C(=O)N[C@@H](CC(N)=O)C(=O)N[C@@H](C(C)C)C(=O)N[C@@H](CCSC)C(=O)N[C@@H](CC(C)C)C(=O)N[C@@H]([C@@H](C)CC)C(=O)N3 [TB1G1],inhibition of FLAG-YAP co-immunoprecipitation with Myc-TEAD,"YAP:TEAD [9]; 293T cell lysate, 30 min at 4 °C",dose-dependent inhibition
same,inhibition of YAP:TEAD-dependent cell staining,YAP:TEAD [5],inhibited YAP:TEAD-dependent cell staining
same,TEAD concentration at which binding was still detectible,TEAD [10],64 pM
same,TEAD concentration of peak signal:noise,TEAD [10],8 nM
same,reduction with 10 mM DTT,[8],complete
"GSYTDCTESGQNLCLCEGSNVCGKGNKCILGSQGKDNQCVTG (also: bicyclic or more (positions not given here)) [Peptide 5, Hirudin-PA]",Trypsin Resistance,trypsin [1],75%
"GSPMTCEQAMASCEHTMCGYCQGPLYMTCIGITTDPECGLP (also: bicyclic or more (positions not given here)) [Peptide 6, Mating pheromone Er-2/Er-9]",Trypsin Resistance,trypsin [1],97%
"GSVDGCQETCTKMIRCQFFTYSLFPEDCRGEKCKCSLR (also: bicyclic or more (positions not given here)) [Peptide 16, Plasma kallikrein]",Trypsin Resistance,trypsin [1],50%
"GSDLVCYCRKRGCKRREHMNGTCRRGHLMYTLCCR (also: bicyclic or more (positions not given here)) [Peptide 10, Alpha-defensin 13]",Trypsin Resistance,trypsin [1],43%
CC[C@H](C)[C@H](NC(=O)[C@H](Cc1ccc(O)cc1)NC(=O)[C@H](CCC(=O)O)NC(=O)[C@H](CC(=O)O)NC(=O)[C@@H]1CCCN1C(=O)[C@H](CO)NC(=O)CN)C(=O)N[C@@H](CCC(=O)O)C(=O)N[C@@H](CCCNC(=N)N)C(=O)N[C@@H](C)C(=O)N[C@@H](CCCCN)C(=O)N[C@@H](CCC(=O)O)C(=O)N[C@H]1CSSC[C@@H]2NC(=O)[C@H](CCC(N)=O)NC(=O)[C@H]([C@@H](C)CC)NC(=O)[C@H](CC(=O)O)NC(=O)[C@H](CCC(N)=O)NC(=O)[C@H](CCCCN)NC(=O)[C@H](CCCCN)NC(=O)[C@H](CSSC[C@@H](C(=O)N3CCC[C@H]3C(=O)O)NC(=O)[C@H](Cc3ccccc3)NC(=O)[C@H](CC(C)C)NC(=O)[C@@H]3CSSC[C@H](NC2=O)C(=O)N[C@@H](CC(C)C)C(=O)N[C@@H](CCCNC(=N)N)C(=O)N[C@@H]([C@@H](C)CC)C(=O)N[C@@H](Cc2ccccc2)C(=O)N[C@@H](CC(=O)O)C(=O)N[C@@H](CCC(=O)O)C(=O)N[C@@H](CO)C(=O)N[C@@H](CCCCN)C(=O)N[C@@H](CC(=O)O)C(=O)N2CCC[C@H]2C(=O)N[C@@H](CC(N)=O)C(=O)N[C@@H](C(C)C)C(=O)N[C@@H](CCSC)C(=O)N[C@@H](CC(C)C)C(=O)N[C@@H]([C@@H](C)CC)C(=O)N3)NC1=O [TB1G2-W40P],thermostability by circular dichroism,[2],identical before (Pre) and after (Post) incubation at 95 °C
same,melting temperature,[4],no melting temperature could be determined
"H-GSPDEYIERAKECCKKGDIQCCLRYFEESGDPNVMLICLACP-OH (disulfide 13-21, 14-41, 22-38) [TB1G1-F38A]",inhibition of FLAG-YAP co-immunoprecipitation with Myc-TEAD,YAP:TEAD [9],not
Venom defensin-like peptide A [Peptide 2],Trypsin Resistance,trypsin [1],84%
"GSRGQCWSYSNCRAVCRDEGYVSGHCNYFGGACWCAS (also: bicyclic or more (positions not given here)) [Peptide 13, Putative uncharacterized protein]",Trypsin Resistance,trypsin [1],52%
